According to patent publication US20170232083A1, “METHODS OF DIAGNOSIS AND TREATMENT OF CELIAC DISEASE IN CHILDREN” (priority 2014, published 2017):

Tested on: PBMC (polyclonal gluten-specific T cells) of paediatric and adult CD patients
Assay: IFN-γ ELISpot of PBMC after 3 day oral wheat challenge (SFU, % of maximal peptide response, dominance scores, EC50; Examples 5-6)
Type: cell-based, human
Details: for IFN-γ ELISpot response: after oral wheat challenge
[1] = patient A, 11-17 yrs, cut-off 10 SFU
[2] = patient D, max peptide 30.5 SFU
[3] = patient E, H, 11-17 yrs, cut-off 10 SFU
[4] = patient F, 11-17 yrs, cut-off 10 SFU
[5] = patient G, 11-17 yrs, cut-off 10 SFU
[6] = patient H (HLA-DQ2.5 homozygote), 3-5yrs, cut-off 10 SFU
[7] = patient H, 11-17 yrs, cut-off 10 SFU
[8] = patient ID not given, 11-17 yrs, cut-off 10 SFU
[9] = patient ID not given, max peptide 95 SFU
[10] = patient N, 3-5yrs, cut-off 10 SFU
[11] = patient P, 11-17 yrs, cut-off 21.6 SFU
[12] = patient Q, 11-17 yrs, cut-off 10 SFU
[13] = patient U, H, 11-17 yrs, cut-off 10 SFU
[14] = patient V, 6-10 yrs, cut-off 10 SFU
[15] = patient Y, 6-10 yrs, cut-off 10 SFU
[16] = patient eleven, 6-10 yrs, cut-off 10 SFU
[17] = patient eleven, max peptide 57 SFU
[18] = patient five, max peptide 48 SFU
[19] = patient four, 3-5yrs, cut-off 10 SFU
[20] = patient four, max peptide 44 SFU
[21] = patient seven, 6-10 yrs, cut-off 10.5 SFU
[22] = patient ten, 3-5yrs, cut-off 10 SFU
[23] = patient three, 6-10 yrs, cut-off 10.5 SFU
[24] = patient twelve, 11-17 yrs, cut-off 10 SFU
[25] = patient two, 3-5yrs, cut-off 10 SFU
[26] = patient two, max peptide 60 SFU

| Sequence | IFN-γ ELISpot response [1] | Significant response as percentage of maximal peptide SFU [2] | IFN-γ ELISpot response [3] | Significant response as percentage of maximal peptide SFU (patient E, max peptide 224 SFU) | IFN-γ ELISpot response [4] | Significant response as percentage of maximal peptide SFU (patient F, max peptide 178 SFU) | IFN-γ ELISpot response [5] | IFN-γ ELISpot response [6] | IFN-γ ELISpot response [7] | Significant response as percentage of maximal peptide SFU (patient H, max peptide 17 SFU) | IFN-γ ELISpot response [8] | Significant response as percentage of maximal peptide SFU [9] | Significant response as percentage of maximal peptide SFU (patient II, max peptide 15 SFU) | Significant response as percentage of maximal peptide SFU (patient J, max peptide 196 SFU) | Significant response as percentage of maximal peptide SFU (patient K, max peptide 53 SFU) | Significant response as percentage of maximal peptide SFU (patient M, max peptide 48 SFU) | IFN-γ ELISpot response [10] | IFN-γ ELISpot response [11] | Significant response as percentage of maximal peptide SFU (patient P, max peptide 64 SFU) | IFN-γ ELISpot response [12] | other results |
| --- | --- | --- | --- | --- | --- | --- | --- | --- | --- | --- | --- | --- | --- | --- | --- | --- | --- | --- | --- | --- | --- |
| LQPFPQPQLPYPQP | 1 SFU | ′′ (21-40% = ′′) | 86 SFU | ′′ (21-40% = ′′) | 64 SFU | ′′ (21-40% = ′′) | 3 SFU | 22 SFU | 14 SFU | + (>70% = +) | 51 SFU | ′′′ (41-70% = ′′′) | + (>70% = +) | ′′′ (41-70% = ′′′) | ′ (11-20% = ′) | ′′′ (41-70% = ′′′) | 4 SFU | 25 SFU | ′′ (21-40% = ′′) | 38 SFU | Significant response as percentage of maximal peptide SFU (patient Q, max peptide 97 SFU): ′′ (21-40% = ′′); IFN-γ ELISpot response [13]: 35 SFU; IFN-γ ELISpot response [14]: 10 SFU; Significant response as percentage of maximal peptide SFU (patient V, max peptide 35 SFU): ′′ (21-40% = ′′); IFN-γ ELISpot response [15]: 14 SFU; Significant response as percentage of maximal peptide SFU (patient Y, max peptide 16 SFU): + (>70% = +); IFN-γ ELISpot response [16]: 29 SFU; Significant response as percentage of maximal peptide SFU [17]: ′′′ (41-70% = ′′′); Significant response as percentage of maximal peptide SFU [18]: ′′′ (41-70% = ′′′); IFN-γ ELISpot response [19]: 17 SFU; Significant response as percentage of maximal peptide SFU [20]: ′′ (21-40% = ′′); IFN-γ ELISpot response [21]: 5 SFU; IFN-γ ELISpot response [22]: 5 SFU; IFN-γ ELISpot response [23]: 93 SFU; IFN-γ ELISpot response [24]: 10 SFU; IFN-γ ELISpot response [25]: 21 SFU; Significant response as percentage of maximal peptide SFU [26]: ′′ (21-40% = ′′) |
| LQPRPQPELPYPQP | 6 SFU | ′′′ (41-70% = ′′′) | 142 SFU | ′′′ (41-70% = ′′′) | 178 SFU | + (>70% = +) | 4 SFU | 45 SFU | 10 SFU | ′′′ (41-70% = ′′′) | 89 SFU | + (>70% = +) | ′′′ (41-70% = ′′′) | + (>70% = +) | ′′′ (41-70% = ′′′) | + (>70% = +) | 7 SFU | 64 SFU | + (>70% = +) | 97 SFU | Significant response as percentage of maximal peptide SFU (patient L, max peptide 11 SFU): + (>70% = +); Significant response as percentage of maximal peptide SFU (patient Q, max peptide 97 SFU): + (>70% = +); IFN-γ ELISpot response [13]: 81 SFU; Significant response as percentage of maximal peptide SFU (patient U, max peptide 81 SFU): + (>70% = +); IFN-γ ELISpot response [14]: 30 SFU; Significant response as percentage of maximal peptide SFU (patient V, max peptide 35 SFU): + (>70% = +); IFN-γ ELISpot response [15]: 11 SFU; Significant response as percentage of maximal peptide SFU (patient Y, max peptide 16 SFU): ′′′ (41-70% = ′′′); IFN-γ ELISpot response [16]: 38 SFU; Significant response as percentage of maximal peptide SFU [17]: ′′′ (41-70% = ′′′); Significant response as percentage of maximal peptide SFU [18]: + (>70% = +); IFN-γ ELISpot response [19]: 24 SFU; Significant response as percentage of maximal peptide SFU [20]: ′′′ (41-70% = ′′′); IFN-γ ELISpot response [21]: 6 SFU; IFN-γ ELISpot response [22]: 6 SFU; IFN-γ ELISpot response [23]: 146 SFU; IFN-γ ELISpot response [24]: 18 SFU; IFN-γ ELISpot response [25]: 36 SFU; Significant response as percentage of maximal peptide SFU [26]: ′′′ (41-70% = ′′′) |
